Results reported in patent US20230322785A1, “ADENOSINE A2A AND A2B RECEPTOR DUAL ANTAGONISTS FOR IMMUNO-ONCOLOGY” (Merck Sharp & Dohme LLC, priority 2020, published 2023).

Legend:
[1] = biological target: T1, human A2A adenosine receptor (Homo sapiens, UniProt P29274); assay: A2A binding affinity, Method (A): radioligand filtration binding with [3H]SCH58261; conditions: membranes of HEK293 or CHO cells expressing the human receptor
T1 construct: expressed in transfected cells; host or cells: HEK293 or CHO cells
Description: (§1) Method (A) describes the procedure used to measure A2A binding affinity using radioligand binding. Method (B) describes the procedure used to measure A2A binding affinity using SPA technology. The method used to measure A2B binding affinity is also described below. The method used to determine the A2A IC50 value reported for each compound in the table is indicated next to the reported value. The A2B IC50 value measured using the A2B binding affinity assay is shown in the table next to the compound under the corresponding A2A value.
The A2A receptor affinity binding assay measured the amount of binding of a tritiated ligand with high affinity for the A2A adenosine receptor to membranes made from HEK293 or CHO cells recombinantly expressing the human A2A adenosine receptor, in the presence of varying concentrations of a compound of the invention. The data were generated using either filtration binding or a homogenous scintillation proximity assay (SPA).
Method (A): Measurement of A2A Binding Affinity Using Radioligand Binding
148 µL (5 µg/mL) membranes (Perkin Elmer, Cat. No. RBHA2aM400UA) and 2 µL compounds of the invention to be tested (test compound) were transferred to individual wells of a 96-well polypropylene assay plate and incubated for 15 to 30 min at room temperature. [^3H] SCH58261 ((7-(2-phenylethyl)-5-amino-2-(2-furyl)-pyrazolo-[4,3-e]-1,2,4-triazolo[1,5-c]pyrimidine)) was diluted in assay buffer (50 mM Tris pH 7.4, 10 mM MgCl2, 0.005% Tween20) to a concentration of 4 nM and 50 µL transferred to each well of the assay plate. To define total and non-specific binding, wells containing 1% DMSO and 1 µM ZM241385 (Tocris Bioscience, Cat. No. 1036) respectively, were also included. The assay plate was incubated at room temperature for 60 min with agitation. Using a FilterMate Harvester® (Perkin Elmer), the contents of the assay plate were filtered through a UniFilter-96® PEI coated plate (Perkin Elmer Cat. No. 6005274 or 6005277). Filtering was achieved by aspirating the contents of the assay plate for 5 sec, then washing and aspirating the contents three times with ice-cooled wash buffer (50 mM Tris-HCl pH 7.4, 150 mM NaCl) and allowing the vacuum manifold to dry the plate for 30 sec. The filter plate was incubated for at least 1 h at 55° C. and allowed to dry. The bottom of the filter plate was sealed with backing tape. 40 µL Ultima Gold™ (Perkin Elmer, Cat. No. 6013329) was added to each well of the filter plate and the top of the plate was sealed with TopSeal-A PLUS® clear plate seal (Perkin Elmer, Cat. No. 6050185). The plate was incubated for at least 20 min, and then the amount of radioactivity remaining in each well was determined using a TopCount® (Perkin Elmer) scintillation counter. After normalization to total and non-specific binding, the percent effect at each compound concentration was calculated. The plot of percent effect versus the log of compound concentration was analyzed electronically using a 4-parameter logistic fit based on the Levenberg-Marquardt algorithm to generate IC50 values.

[2] = biological target: T2, human A2B adenosine receptor (Homo sapiens, UniProt P29275); assay: A2B binding affinity, radioligand filtration binding assay; conditions: membranes of HEK293 cells expressing human A2B
T2 construct: purchased Perkin Elmer ES-013-C; host or cells: HEK293 cells
T2 sequence (P29275 1-332): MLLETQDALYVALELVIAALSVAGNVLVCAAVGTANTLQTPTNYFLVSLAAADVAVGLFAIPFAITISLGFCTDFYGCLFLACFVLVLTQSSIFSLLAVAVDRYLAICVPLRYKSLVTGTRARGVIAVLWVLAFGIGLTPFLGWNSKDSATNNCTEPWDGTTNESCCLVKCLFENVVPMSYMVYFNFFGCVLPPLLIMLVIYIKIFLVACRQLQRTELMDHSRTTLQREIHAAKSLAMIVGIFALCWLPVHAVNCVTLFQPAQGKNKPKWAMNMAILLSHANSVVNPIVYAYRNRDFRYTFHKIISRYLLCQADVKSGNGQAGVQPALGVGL
Description: as §1
Measurement of A2B Binding Affinity
The reported affinity of the compounds of the invention for the human A2B adenosine receptor was determined experimentally using a radioligand filtration binding assay. This assay measures the amount of binding of a tritiated proprietary A2B receptor antagonist, in the presence and absence of a compound of the invention, to membranes made from HEK293 cells recombinantly expressing the human A2B adenosine receptor (Perkin Elmer, Cat. No. ES-013-C). […] 148 µL (135 µg/mL) membranes and 2 µL test compounds were transferred to individual wells of a 96-well polypropylene assay plate and incubated for 15 to 30 min at room temperature with agitation. Tritiated radioligand was diluted to a concentration of 14 nM in assay buffer (phosphate buffered saline without Magnesium and Calcium, pH 7.4; GE Healthcare Life Sciences, Cat. No. SH30256.01) and then 50 µL of the solution were transferred to each well of the assay plate. To define total and non-specific binding, wells containing 1% DMSO and 20 µM N-ethylcarboxamidoadenosine (Tocris Bioscience, Cat. No. 1691) respectively, were also included. The wells of the assay plate were incubated at room temperature for 60 min with agitation, then filtered using a FilterMate Harvester® (Perkin Elmer) or similar equipment through a UniFilter-96® PEI coated plate (Perkin Elmer Cat. No. 6005274 or 6005277). Filtering was achieved by aspirating the contents of the assay plate for 5 sec, then washing and aspirating the contents three times with ice-cooled wash buffer (assay buffer supplemented with 0.0025% Brij58) and allowing the vacuum manifold to dry the plate for 30 sec. The filter plate was incubated for at least 1 h at 55° C. and allowed to dry. The bottom of the filter plate was then sealed with backing tape. 40 µL Ultima Gold™ (Perkin Elmer, Cat. No. 6013329) was added to each well of the filter plate and the top of the plate was sealed with TopSeal-A PLUS® clear plate seal (Perkin Elmer, Cat. No. 6050185). The plates were then incubated for at least 20 min, and then the amount of radioactivity remaining in each well was determined using a TopCount® (Perkin Elmer) scintillation counter. After normalization to total and non-specific binding, the percent effect at each compound concentration was calculated. The plot of percent effect versus the log of compound concentration was analyzed electronically using a 4-parameter logistic fit based on the Levenberg-Marquardt algorithm to generate IC50 values.

T1 sequence (P29274 whole entry): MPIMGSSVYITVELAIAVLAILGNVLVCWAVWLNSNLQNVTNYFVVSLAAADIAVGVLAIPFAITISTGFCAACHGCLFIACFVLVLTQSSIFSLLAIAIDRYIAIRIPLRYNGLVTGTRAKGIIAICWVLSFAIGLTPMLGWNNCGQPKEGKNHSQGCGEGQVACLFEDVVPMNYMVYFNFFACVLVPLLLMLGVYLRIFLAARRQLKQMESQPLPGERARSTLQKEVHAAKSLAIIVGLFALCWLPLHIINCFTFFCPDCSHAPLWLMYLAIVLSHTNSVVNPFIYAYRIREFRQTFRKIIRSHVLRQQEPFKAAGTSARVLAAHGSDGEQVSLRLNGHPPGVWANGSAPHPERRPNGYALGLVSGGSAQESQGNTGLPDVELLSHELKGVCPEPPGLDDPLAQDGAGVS

`COc1cc(F)cc2c1nc(N)n1nc(CNCc3ccc(C(C)(O)C(F)(F)F)cc3)nc21` (single isomer, unassigned) [Example 11.8B, (R or S)-2-(4-((((5-amino-9-fluoro-7-methoxy-[1,2,4]triazolo[1,5-c]quinazolin-2-yl)methyl)amino)methyl)phenyl)-1,1,1-trifluoropropan-2-ol] showed an IC50 [1] of 0.4 nM and an IC50 ([2]; value given with mark (A)) of 2.9 nM.
Molecule `COc1cccc2c1nc(N)n1nc(CNCc3cnn(C)c3)nc21` [Example 11.3, 7-methoxy-2-((((1-methyl-1H-pyrazol-4-yl)methyl)amino)methyl)-[1,2,4]triazolo[1,5-c]quinazolin-5-amine] has an IC50 [1] of 0.1 nM and an IC50 ([2]; value printed with mark (B)) of 1040 nM.
For `COc1cc(F)cc2c1nc(N)n1nc(CNCc3ccc(S(N)(=O)=O)cc3)nc21` [Example 11.11, 4-((((5-amino-9-fluoro-7-methoxy-[1,2,4]triazolo[1,5-c]quinazolin-2-yl)methyl)amino)methyl)benzenesulfonamide], the IC50 [1] was 2.1 nM and the IC50 ([2]; value given with mark (A)) was 15.6 nM.
`COc1cc(F)cc2c1nc(N)n1nc(CNCc3ccc(C(C)(C)O)cc3)nc21` [Example 11.4, 2-(4-((((5-amino-9-fluoro-7-methoxy-[1,2,4]triazolo[1,5-c]quinazolin-2-yl)methyl)amino)methyl)phenyl)propan-2-ol] was tested, and the IC50 [1] was 0.1 nM and the IC50 ([2]; value printed with mark (B)) was 2.9 nM.
`COc1cc(F)cc2c1nc(N)n1nc(CNCc3ccc(C(C)(O)C(F)(F)F)cc3)nc21` (single isomer, unassigned) [Example 11.8A, (S or R)-2-(4-((((5-amino-9-fluoro-7-methoxy-[1,2,4]triazolo[1,5-c]quinazolin-2-yl)methyl)amino)methyl)phenyl)-1,1,1-trifluoropropan-2-ol] gave an IC50 [1] of 0.8 nM and an IC50 ([2]; value given with mark (A)) of 11.3 nM.
